# Assay results: US20110263696A1, “PROANTHOCYANIDINS FROM CINNAMON AND ITS WATER SOLUBLE EXTRACT INHIBIT TAU AGGREGATION” (priority 2007, published 2011)
# Experiments:
# tau = settings: literature; cited from earlier work
# tau polypeptides = assay: Light scattering measurements (absorbance at 350 nm) of tau aggregation; type: biochemical, human
# Procedure: FIG. 11. Dose response of cinnamon (oxidized) on tau aggregation. […] In this experiment, cinnamon was incubated overnight in 10 mM NH4OH.
# FIG. 12. Effect of cinnamon A trimer on light scattering of tau.
# In one illustrative embodiment of the invention, the effects of cinnamon extract or purified cinnamon proanthocyanidins on tau aggregation can be followed readily in a spectrophotometer by measuring the change in absorbance at 350 nm. The association of tau promoted by heparin causes an increase in absorbance. […] Different buffers and temperatures may be used if desired to study factor influencing aggregation.
# tau187 [1] = target: T1, tau187 (Homo sapiens, UniProt P10636); assay: Turbidity (OD350) assay of heparin-induced aggregation, tau187; type: biochemical; settings: cinnamaldehyde 50 and 100 uM; tau187 50 uM, heparin 0.11 mg/ml, 23 C
# T1 construct: his; made in house; host or cells: bacteria
# Procedure: FIG. 15A. […] 50 μM Tau^187 was incubated with 0.11 mg/ml heparin (18 kDa) at 23° C. Aggregation was monitored by turbidity (OD350). Cinnamaldehyde was present at a final concentration of 0, 50 and 100 μM. FIG. 15B. Electron microscopy of tau fibers in the presence of cinnamaldehyde (CA). Tau fibers were visualized by electron microscopy after 5 hrs of aggregation in the presence of: 0 CA (left panel); B) 100 uM CA (right panel). […] FIG. 15 C. Trans-cinnamaldehyde chemical structure. FIG. 16A. […] 50 uM tau187 was incubated with 0.11 mg/mL heparin (18 kDa) at 23° C. Epicatechin was untreated, treated with 10 mM NH4OH for 10 min at 95° C. then neutralized, or treated with 100 U of mushroom tyrosinase (Sigma) for 10 min. Epicatechin was added to the reaction at a final concentration of 25 uM. Fiber formation was monitored by OD 350. FIG. 16B. epicatechin and catechin chemical structures. FIG. 17A. HPLC analysis of proanthocyanidin A-type trimer, A) purified or B) in whole cinnamon extract. The trimer corresponds to the major peak at ˜40 min. Areas underneath the peaks in panels A and B each correspond to 6150 pmoles. […] Fiber formation was monitored by OD 350. Concentrations of A-trimer in pure form and in whole cinnamon extract (CE) were normalized by absorbance measurements of the A-trimer resolved by HPLC. […]
# tau187 [2] = target: T1, tau187; assay: Electron microscopy of tau187 fibers; type: biochemical; settings: 100 uM CA, 5 hrs of aggregation
# Procedure: FIG. 6. […] Aggregation of tau^187 (50 uM) was initiated with heparin (0.1 mg/ml) in 20 mM NaPO4, pH 7.0. in the presence of: no proanthocyanidin (left panel), or 200 uM purified A-type trimer (right panel). Scale: Bars=500 nm
# FIG. 13. Effect of oxidized cinnamon on tau filament formation. […] Left panel: no cinnamon; right panel 10 μM oxidized cinnamon.
# FIG. 15A. […] 50 μM Tau^187 was incubated with 0.11 mg/ml heparin (18 kDa) at 23° C. Aggregation was monitored by turbidity (OD350). Cinnamaldehyde was present at a final concentration of 0, 50 and 100 μM. FIG. 15B. Electron microscopy of tau fibers in the presence of cinnamaldehyde (CA). Tau fibers were visualized by electron microscopy after 5 hrs of aggregation in the presence of: 0 CA (left panel); B) 100 uM CA (right panel). […] FIG. 15 C. Trans-cinnamaldehyde chemical structure.
# Two hexapeptide motifs in tau are critical for tau aggregation and fiber formation (see, e.g. von Bergen et al., Proc Nad Acad Sci USA 97, 5129-34 (2000)). These motifs lie in the first and second inter-repeat regions of the MT binding domain (FIG. 5), and it is known that engineered truncation fragments of tau that contain these motifs often undergo aggregation into fibers even more efficiently than the full-length molecule (see, e.g. Barghorn et al., Biochemistry 41, 14885-96 (2002)). […]
# [3] = literature; cited from earlier work
# T1 sequence (P10636 572-758 limits assumed): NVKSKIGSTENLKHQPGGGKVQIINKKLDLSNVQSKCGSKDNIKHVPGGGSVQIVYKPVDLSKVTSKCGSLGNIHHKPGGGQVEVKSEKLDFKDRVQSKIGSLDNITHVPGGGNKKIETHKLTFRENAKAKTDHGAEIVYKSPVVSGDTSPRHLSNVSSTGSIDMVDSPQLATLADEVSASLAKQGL
structure (smiles),measurement,setting,value
O=C(O[C@@H]1Cc2c(O)cc(O)cc2O[C@@H]1c1cc(O)c(O)c(O)c1)c1cc(O)c(O)c(O)c1 [epigallocatechin gallate],Inhibition of tau aggregation (published studies),tau,effectively inhibit tau aggregation
"Oc1cc(O)c2c(c1)O[C@H](c1ccc(O)c(O)c1)[C@H](O)[C@H]2c1c(O)cc(O)c2c1O[C@H](c1ccc(O)c(O)c1)[C@H](O)C2 [cinnamon proanthocyanidin B2, proanthocyanidin B2]",Inhibition of tau aggregation by light scattering,tau polypeptides,inhibits the aggregation
"O=C/C=C/c1ccccc1 [cinnamaldehyde, Trans-cinnamaldehyde]",Inhibition of tau187 aggregation (turbidity OD350),tau187 [1],Inhibition of tau aggregation
same,Tau fiber density by EM,tau187 [2],dramatically reduced
Oc1cc(O)c2c(c1)O[C@H](c1ccc(O)c(O)c1)[C@H](O)[C@H]2c1c(O)cc(O)c2c1O[C@H](c1ccc(O)c(O)c1)[C@@H](O)C2 [proanthocyanidin dimer B1],Inhibition of tau aggregation (published studies),tau,effectively inhibit tau aggregation
Oc1cc(O)c2c(c1)O[C@H](c1ccc(O)c(O)c1)[C@H](O)C2 [epicatechin],Brain permeability after oral ingestion,[3],brain-permeable
